In ChEMBL document CHEMBL5053535, “Design, synthesis and biological evaluation of novel aminopyrazole- and 7-azaindole-based Nek1 inhibitors and their effects on zebrafish kidney development” (Bioorg Med Chem Lett, 2021):
≈ marks a conversion by molar mass, not a printed value.

Assays:
[1] = target: T1, Serine/threonine-protein kinase Nek1 (Homo sapiens) (UniProt Q96PY6); assay: Inhibition of human NEK1 using myelin basic protein as substrate assessed as residual activity at 1 uM in presence of [gamma-33P]-ATP by radiometric hotspot kinase assay relative to control
T1 sequence (whole entry): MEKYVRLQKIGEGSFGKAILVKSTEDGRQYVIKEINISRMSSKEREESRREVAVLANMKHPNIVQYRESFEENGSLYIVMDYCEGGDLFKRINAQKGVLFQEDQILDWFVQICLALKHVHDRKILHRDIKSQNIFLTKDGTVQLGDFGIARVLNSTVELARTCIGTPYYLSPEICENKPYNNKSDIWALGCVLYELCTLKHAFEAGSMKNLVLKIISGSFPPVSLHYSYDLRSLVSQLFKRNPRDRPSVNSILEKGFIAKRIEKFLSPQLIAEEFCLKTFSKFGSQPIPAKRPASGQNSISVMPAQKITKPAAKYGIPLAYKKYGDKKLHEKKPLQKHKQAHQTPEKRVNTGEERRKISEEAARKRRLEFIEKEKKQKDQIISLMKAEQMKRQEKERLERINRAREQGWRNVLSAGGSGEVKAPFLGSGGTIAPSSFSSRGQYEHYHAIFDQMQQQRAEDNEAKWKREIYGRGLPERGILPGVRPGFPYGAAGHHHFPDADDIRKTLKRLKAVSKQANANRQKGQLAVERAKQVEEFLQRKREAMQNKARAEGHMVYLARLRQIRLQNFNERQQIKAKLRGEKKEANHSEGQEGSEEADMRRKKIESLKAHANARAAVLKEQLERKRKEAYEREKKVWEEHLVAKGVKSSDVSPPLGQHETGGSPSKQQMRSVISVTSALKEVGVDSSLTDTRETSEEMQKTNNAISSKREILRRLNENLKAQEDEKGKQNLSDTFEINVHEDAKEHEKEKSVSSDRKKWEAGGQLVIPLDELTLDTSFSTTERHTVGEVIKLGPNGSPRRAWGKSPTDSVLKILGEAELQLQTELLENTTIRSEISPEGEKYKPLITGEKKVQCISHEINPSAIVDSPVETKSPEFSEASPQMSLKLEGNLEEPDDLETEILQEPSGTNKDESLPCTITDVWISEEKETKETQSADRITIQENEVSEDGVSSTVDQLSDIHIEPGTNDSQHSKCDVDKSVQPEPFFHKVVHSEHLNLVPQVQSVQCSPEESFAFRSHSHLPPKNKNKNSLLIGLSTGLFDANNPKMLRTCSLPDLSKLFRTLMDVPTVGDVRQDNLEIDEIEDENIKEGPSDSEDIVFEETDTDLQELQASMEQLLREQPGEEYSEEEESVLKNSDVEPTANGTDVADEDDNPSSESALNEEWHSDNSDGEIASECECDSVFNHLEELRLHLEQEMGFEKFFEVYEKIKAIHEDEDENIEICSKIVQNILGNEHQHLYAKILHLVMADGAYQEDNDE

[2] = target: T1, Serine/threonine-protein kinase Nek1 (Homo sapiens); assay: Inhibition of human NEK1 using myelin basic protein as substrate assessed as residual activity at 10 uM in presence of [gamma-33P]-ATP by radiometric hotspot kinase assay relative to control
[3] = target: T2, Serine/threonine-protein kinase Nek1 (Homo sapiens, UniProt Q96PY6); assay: Inhibition of human NEK1 using myelin basic protein as substrate assessed as residual activity in presence of [gamma-33P]-ATP by radiometric hotspot kinase assay relative to control
T2 sequence (Q96PY6 whole entry): T1 sequence (whole entry)

[4] = target: Cyclin-dependent kinase 2/cyclin E1 (Homo sapiens) (UniProt P24864+P24941); assay: (§1) Inhibition of human recombinant full length C-terminal His6 tagged CDK2/ N-terminal GST-tagged Cyclin E expressed in baculovirus infected Sf21 insect cells using histone H1 as substrate assessed as residual activity at 1 uM pretreated for 20 mins followed by [33P]-ATP addition measured after 120 mins by radiometric hotspot kinase assay relative to control; details: time 140.0 min
[5] = target: T3, Serine/threonine-protein kinase Chk1 (Homo sapiens) (UniProt O14757); assay: as §1, with “N-terminal His” for “C-terminal His6”, “CHK1” for “CDK2/ N-terminal GST-tagged Cyclin E”, “CHKtide” for “histone H1”; details: time 140.0 min
T3 sequence (whole entry): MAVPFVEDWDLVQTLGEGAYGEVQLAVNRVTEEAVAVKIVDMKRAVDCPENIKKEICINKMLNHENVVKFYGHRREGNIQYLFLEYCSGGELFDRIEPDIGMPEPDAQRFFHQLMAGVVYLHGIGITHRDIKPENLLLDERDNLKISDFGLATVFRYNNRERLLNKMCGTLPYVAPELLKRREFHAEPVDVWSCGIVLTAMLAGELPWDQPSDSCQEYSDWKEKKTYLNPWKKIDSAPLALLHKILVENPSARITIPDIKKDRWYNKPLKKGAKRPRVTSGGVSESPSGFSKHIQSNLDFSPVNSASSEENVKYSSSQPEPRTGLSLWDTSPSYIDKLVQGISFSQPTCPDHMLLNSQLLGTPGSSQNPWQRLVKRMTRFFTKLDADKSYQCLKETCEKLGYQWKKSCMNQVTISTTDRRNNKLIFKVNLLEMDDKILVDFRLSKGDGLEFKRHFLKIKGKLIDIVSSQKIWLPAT

[6] = target: Vascular endothelial growth factor receptor 2 (Homo sapiens) (UniProt P35968); assay: Inhibition of human recombinant C-terminal His6 tagged VEGFR2 (789 to 1356 residues) expressed in baculovirus infected insect cells assessed as residual activity at 1 uM pretreated for 20 mins followed by [33P]-ATP addition measured after 120 mins by radiometric hotspot kinase assay relative to control; details: time 140.0 min
[7] = target: T4, Serine/threonine-protein kinase Nek5 (Homo sapiens) (UniProt Q6P3R8); assay: Inhibition of human recombinant NEK5 assessed as residual activity at 1 uM pretreated for 20 mins followed by [33P]-ATP addition measured after 120 mins by radiometric hotspot kinase assay relative to control; details: time 140.0 min
T4 sequence (whole entry): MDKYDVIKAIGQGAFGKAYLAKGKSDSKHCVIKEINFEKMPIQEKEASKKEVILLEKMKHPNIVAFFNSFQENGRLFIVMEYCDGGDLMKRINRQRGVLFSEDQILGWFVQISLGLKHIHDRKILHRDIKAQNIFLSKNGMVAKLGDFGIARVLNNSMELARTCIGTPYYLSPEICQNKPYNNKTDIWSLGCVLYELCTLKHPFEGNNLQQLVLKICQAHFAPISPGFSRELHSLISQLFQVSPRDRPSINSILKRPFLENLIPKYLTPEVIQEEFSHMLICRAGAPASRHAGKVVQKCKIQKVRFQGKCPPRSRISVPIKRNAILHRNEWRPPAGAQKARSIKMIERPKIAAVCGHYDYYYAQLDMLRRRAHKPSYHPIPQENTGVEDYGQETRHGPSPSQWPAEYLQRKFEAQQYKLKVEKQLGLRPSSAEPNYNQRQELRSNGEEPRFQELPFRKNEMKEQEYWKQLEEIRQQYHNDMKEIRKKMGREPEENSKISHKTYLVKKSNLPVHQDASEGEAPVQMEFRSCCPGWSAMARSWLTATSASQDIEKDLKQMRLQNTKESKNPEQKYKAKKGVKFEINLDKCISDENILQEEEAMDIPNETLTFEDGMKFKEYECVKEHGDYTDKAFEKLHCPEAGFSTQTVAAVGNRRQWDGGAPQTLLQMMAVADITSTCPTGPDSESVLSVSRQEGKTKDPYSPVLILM

[8] = target: Wee1-like protein kinase (Homo sapiens) (UniProt P30291); assay: Inhibition of human recombinant full length WEE1 expressed in insect cells using MBP as substrate assessed as residual activity at 1 uM pretreated for 20 mins followed by [33P]-ATP addition measured after 120 mins by radiometric hotspot kinase assay relative to control; details: time 140.0 min
[9] = Solubility of the compound in E3 medium with 0.2% DMSO by DAD-HPLC based shake flask method; format: physicochemical
[10] = Solubility of the compound in DMEM with 1% DMSO by DAD-HPLC based shake flask method; format: physicochemical
[11] = Stability of the compound in DMEM measured after 48 hrs by DAD-HPLC method; format: physicochemical; details: read-out: Stability

Wee1-like protein kinase (Homo sapiens), sequence (P30291 whole entry, looked up): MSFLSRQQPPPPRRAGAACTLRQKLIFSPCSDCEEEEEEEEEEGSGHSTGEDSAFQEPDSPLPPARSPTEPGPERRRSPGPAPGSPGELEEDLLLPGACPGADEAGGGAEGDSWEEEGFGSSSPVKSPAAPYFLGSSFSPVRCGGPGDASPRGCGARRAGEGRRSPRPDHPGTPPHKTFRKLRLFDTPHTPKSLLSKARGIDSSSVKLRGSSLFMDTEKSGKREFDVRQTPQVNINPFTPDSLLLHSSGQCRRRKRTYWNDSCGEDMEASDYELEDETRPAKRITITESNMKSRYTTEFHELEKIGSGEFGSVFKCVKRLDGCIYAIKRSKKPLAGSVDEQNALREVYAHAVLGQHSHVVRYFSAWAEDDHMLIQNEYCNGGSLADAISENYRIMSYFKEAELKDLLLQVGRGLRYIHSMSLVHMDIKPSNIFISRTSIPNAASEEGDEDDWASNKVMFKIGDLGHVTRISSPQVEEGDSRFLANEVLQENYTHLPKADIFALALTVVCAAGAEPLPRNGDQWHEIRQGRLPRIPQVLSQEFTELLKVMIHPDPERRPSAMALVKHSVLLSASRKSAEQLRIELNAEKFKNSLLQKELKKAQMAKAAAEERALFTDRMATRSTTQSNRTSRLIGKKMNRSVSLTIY
Vascular endothelial growth factor receptor 2 (Homo sapiens), sequence (P35968 whole entry, the tested form may be a part): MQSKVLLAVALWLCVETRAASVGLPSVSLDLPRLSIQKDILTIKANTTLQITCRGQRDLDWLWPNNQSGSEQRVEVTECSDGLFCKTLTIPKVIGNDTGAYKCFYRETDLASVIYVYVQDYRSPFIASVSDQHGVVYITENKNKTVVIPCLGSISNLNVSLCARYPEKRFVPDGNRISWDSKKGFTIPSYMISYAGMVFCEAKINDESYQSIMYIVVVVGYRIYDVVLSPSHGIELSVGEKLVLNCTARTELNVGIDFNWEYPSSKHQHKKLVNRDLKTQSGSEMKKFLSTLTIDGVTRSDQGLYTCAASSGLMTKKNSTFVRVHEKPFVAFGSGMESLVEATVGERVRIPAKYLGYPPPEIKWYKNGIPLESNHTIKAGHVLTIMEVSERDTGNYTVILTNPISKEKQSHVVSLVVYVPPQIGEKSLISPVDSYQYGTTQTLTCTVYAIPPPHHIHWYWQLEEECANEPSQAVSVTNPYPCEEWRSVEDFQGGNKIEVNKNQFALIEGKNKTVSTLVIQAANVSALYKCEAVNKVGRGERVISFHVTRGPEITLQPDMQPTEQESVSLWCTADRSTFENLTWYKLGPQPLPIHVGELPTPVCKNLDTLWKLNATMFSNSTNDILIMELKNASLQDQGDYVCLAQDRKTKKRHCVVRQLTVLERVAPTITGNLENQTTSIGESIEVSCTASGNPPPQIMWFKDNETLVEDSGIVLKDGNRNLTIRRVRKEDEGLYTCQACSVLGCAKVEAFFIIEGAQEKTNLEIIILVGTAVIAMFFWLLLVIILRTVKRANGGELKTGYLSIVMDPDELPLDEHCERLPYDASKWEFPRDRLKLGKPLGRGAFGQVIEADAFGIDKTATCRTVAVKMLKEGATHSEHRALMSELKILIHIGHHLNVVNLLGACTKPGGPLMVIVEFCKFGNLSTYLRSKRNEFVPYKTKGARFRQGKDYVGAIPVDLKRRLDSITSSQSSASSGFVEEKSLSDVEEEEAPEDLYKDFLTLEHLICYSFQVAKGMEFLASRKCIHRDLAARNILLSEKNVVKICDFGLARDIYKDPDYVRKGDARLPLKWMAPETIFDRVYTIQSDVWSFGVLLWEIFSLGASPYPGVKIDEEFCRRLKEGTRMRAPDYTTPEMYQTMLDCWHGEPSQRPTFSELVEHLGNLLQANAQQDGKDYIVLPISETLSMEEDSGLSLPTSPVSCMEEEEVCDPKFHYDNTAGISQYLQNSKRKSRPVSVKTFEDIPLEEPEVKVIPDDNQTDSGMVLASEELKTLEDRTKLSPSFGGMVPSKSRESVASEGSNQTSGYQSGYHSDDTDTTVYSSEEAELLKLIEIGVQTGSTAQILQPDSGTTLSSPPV

SMILES	Activity [1] [%]	also measured
Cc1cc(Nc2ccnc(N(C)c3ccccc3)n2)n[nH]1	89.8	–
N#Cc1cccc(-c2cnc3[nH]cc([N+](=O)[O-])c3c2)c1	> 100	–
Cc1cc(Nc2ccnc(Nc3ccccc3)n2)n[nH]1	74.8	–
O=[N+]([O-])c1cccc(-c2cnc3[nH]ccc3c2)c1	–	Activity [2]: 78.5%
c1ccc(-c2cnc3[nH]ccc3c2)cc1	–	Activity [2]: 62.9%
N#Cc1cccc(-c2cnc3[nH]cc(-c4cccnc4)c3c2)c1	17.4	IC50 [3]: 129 nM; Activity [4]: 2.9%; Activity [5]: 69.6%; Activity [6]: 35%; Activity [7]: 27.9%; Activity [8]: 83.4%; solubility [9]: 7.2 µM (≈ 2.13 µg/mL); solubility [10]: 5.7 µM (≈ 1.69 µg/mL); remaining at 48 h [11]: 98%
Cc1cc(Nc2ccnc(Nc3cccc4ccccc34)n2)n[nH]1	90.1	–
Cc1cc(Nc2ccnc(NCc3cccnc3)n2)n[nH]1	101	–
N#Cc1cccc(-c2cnc3[nH]cc(-c4ccccc4)c3c2)c1	52.3	–
O=[N+]([O-])c1cccc(Nc2nccc(Nc3cc(C4CC4)[nH]n3)n2)c1	28.5	–
COC(=O)c1cccc(-c2cnc3[nH]cc(-c4ccc(C)cc4)c3c2)c1	47.9	–
Cc1cc(Nc2ccnc(NC3CC3)n2)n[nH]1	95.1	–
COCCNc1nccc(Nc2cc(C)[nH]n2)n1	99.8	–
Cc1cc(Nc2ccnc(Nc3cccc([N+](=O)[O-])c3)n2)n[nH]1	36.6	–
N#Cc1cccc(-c2cnc3[nH]cc(-c4ccncc4)c3c2)c1	74.3	–
COC(=O)c1cccc(-c2cnc3[nH]ccc3c2)c1	–	Activity [2]: 44.7%

Further lines, with some results ahead:

Activity [1] [%]	SMILES	also measured
98.4	Cc1cc(Nc2ccnc(N3CCN(C)CC3)n2)n[nH]1	–
72.8	Cc1ccc(-c2c[nH]c3ncc(-c4cccc(C#N)c4)cc23)cc1	–
> 100	N#Cc1cccc(-c2cnc3[nH]cc(Br)c3c2)c1	–
86.8	Cc1ccc(CNc2nccc(Nc3cc(C)[nH]n3)n2)cc1	–
